Measurements: patent US20050260683A1, “Methods for diagnosing and treating pre-term labor” (University of Hawaii, priority 2002, published 2005)
“Also recorded” adds a separate entry of the source. Read-outs that look alike come from different tables or passages of the source.

Columns and labels:
[1] = tested on: PBEF gene expression in WISH cells; assay: PBEF gene expression in IL-1β-stimulated WISH cells with inhibitors, real-time PCR; assay type: cell-based, human; settings: IL-1β 1 ng/ml; for effect on IL-1β-induced up-regulation of PBEF: inhibitor over a range of dilutions
Procedure: (§1) Thus, the human anmiotic epithelial-like cell line (WISH) was stimultated by addition of IL-1β (1 ng/ml) or by stretching (20%). In order to show any inhibitory effects on the expression of PBEF, a panel of inhibitors (SN50, Curcumin and PDTC) were added over a range of dilutions to both systems. Gene expression was quantitated by real-time PCR and normalized to 18 s.

[2] = tested on: NF-κB; assay: NF-κB translocation in WISH cells, anti-p65 immunolabeling; assay type: cell-based, human; settings: after addition of IL-1β
Procedure: as §1
Peak translocation of NF-κB from the cytoplasm to the nucleus occurred one hour after addition of IL-1β and was clearly seen by immunolabeling with an antibody (anti-p65) to one of the subunits of NF-κB. Increased PBEF gene expression also resulted from IL-1β stimulation.

[3] = tested on: IL-6; settings: Keelan et al.; cited from earlier work
[4] = tested on: PBEF gene expression; settings: Ognjanovic et al., cited from earlier work
[5] = tested on: IL-8; settings: Keelan et al.; Laham et al.; cited from earlier work

Compound	effect on IL-1β-induced up-regulation of PBEF [1]	IL-6 transcription [3]	PBEF gene expression / transcription [4]	IL-8 transcription [5]	other results
COc1cc(/C=C/C(=O)CC(=O)/C=C/c2ccc(O)c(OC)c2)ccc1O [Curcumin]	prevented the up-regulation of PBEF to varying degrees	–	–	–	–
S=C(S)N1CCCC1 [PDTC]	prevented the up-regulation of PBEF to varying degrees	–	–	–	–
IL-1β: proinflammatory cytokine interleukin-1-beta	–	stimulate	stimulate; also recorded: induced	stimulate	time of peak translocation of NF-κB from the cytoplasm to the nucleus [2]: one hour; PBEF gene expression after stimulation [1]: Increased
IL-6: cytokine interleukin-6	–	–	induced	–	–
IL-8: cytokine interleukin-8	–	–	no such effect	–	–
TNF-α	–	stimulate	induced	stimulate	PBEF gene expression / transcription ([4]; listed as TNF-A): stimulate
